How the values were obtained:
[1] = molecular target: T1, human Nav1.7 channels (Homo sapiens, UniProt Q15858); assay: Whole-cell patch clamp, use-dependent block of sodium current, drug applied intracellularly or externally; format: cell-based; conditions: for effect on sodium current when applied externally versus inside the cell: same protocol, applied outside the cell
T1 construct: expressed in transfected cells
Description: Whole-cell recordings were made of currents carried by voltage-activated channels in HEK293 cells stably expressing human Nav1.7 channels. Recordings were made using patch pipettes with resistances of 2-3.5 MQ when filled with internal solution, consisting of 61 mM CsF, 61 mM CsCl, 9 mM NaCl, 1.8 mM MgCl2, 9 mM EGTA, 14 mM creatine phosphate (tris salt), 4 mM MgATP, and 0.3 mM GTP (tris salt), 9 mM HEPES, pH adjusted to 7.2 with CsOH. The shank of the electrode was wrapped with Parafilm in order to reduce capacitance and allow optimal series resistance compensation without oscillation. Seals were obtained and the whole-cell configuration established with cells in Tyrode's solution (155 mM NaCl, 3.5 mM KCl, 1.5 mM CaCl2), 1 mM MgCl2, 10 mM HEPES, 10 mM glucose, pH adjusted to 7.4 with NaOH) with 10 mM TEACl. To ensure complete dialysis with pipette solution, recordings began after 5 to 10 min after establishment of the whole-cell configuration.
Currents were recorded at room temperature (21-23° C.) with an Axopatch 200 amplifier and filtered at 5 kHz with a low-pass Bessel filter. The amplifier was tuned for partial compensation of series resistance (typically 70-80% of a total series resistance of 4-10 MO). Currents were digitized using a Digidata 1322A data acquisition interface controlled by pClamp9.2 software (Axon Instruments) and analyzed using programs written in Igor Pro 4.0 (Wavemetrics, Lake Oswego, Oreg.). Currents were corrected for linear capacitative and leak currents determined using 5 mV hyperpolarizations delivered from the resting potential (usually −80 or −100 mV) and then appropriately scaled and subtracted.
Sodium currents were evoked by 30-msec depolarizations from −100 mV to −20 mV. To assay use-dependent block, pulses were delivered at series of increasing rates: 0.05 Hz for 1-min, 0.33 Hz for 1-min, 1 Hz for 1-min, 3 Hz for 1-min, 5 Hz for 30 seconds, 10 Hz for 30 seconds, with 1 minute rest between each series of pulses. After the series of pulses to induce use-dependent block, the time course of recovery was followed using pulses delivered at 01. Hz (2-min) and 0.05 Hz (1-min).
To induce use-dependent block, the depolarizations were delivered by series of increasing rates: 0.05 Hz for 1-min, 0.33 Hz for 1-min, 1 Hz for 1-min, 3 Hz for 1-min, 5 Hz for 30 seconds, 10 Hz for 30 seconds, with 1 minute rest between each series of pulses. After the series of pulses to induce use-dependent block, the time course of recovery was followed using pulses delivered at 01. Hz (2-min) and 0.05 Hz (1-min). Peak sodium current was plotted as a function of experimental time (1-min per division on the time axis).

[2] = system: thermal nociceptive threshold; assay: Thermal nociceptive threshold after acute intraplantar injection in naive animals; format: in vivo, rats; conditions: naïve animals
[3] = system: CFA-induced thermal hyperalgesia; assay: CFA-induced thermal hyperalgesia (Hargreaves radiant heat, hind paw); format: in vivo; conditions: mice, intraplantar co-injection with CFA, 1%
Description: FIGS. 2A-2D show reversal of CFA-induced thermal hyperalgesia by charged sodium channel blockers. FIGS. 2A and 2C show time course (0, 1, 6, and 24 hours) of changes in thermal nociceptive sensitivity measured as response latency (seconds) to a constant radiant heat source applied to the plantar surface of hind paw in mice co-treated with 20 μL (injected in the left hindpaw) of CFA (50% emulsion) and saline, and when the CFA was co-applied with QX-314 (1%, hollow square), N-ethyl etidocaine (Compound 21, 1%; dark square), or ACS8180-3B (Compound 3, 1%; solid triangle). FIGS. 2B and 2D show the nociceptive heat pain response time before CFA treatment and after treatment with the different compounds 1 hour post CFA injection. The data are means±SEM of 8-16 mice per group. The statistical comparison with pre-CFA (*) and with CFA+Vehicle (+) is indicated by +P<0.05; ++P<0.01 and +++,*** P<0.001. All procedures were approved by the Institutional Animal Care and Use Committees. Mice and rats were housed in standard environmental conditions (12-h light/dark cycle; 23° C.; food and water ad libitum) at facilities accredited by the Association for Assessment and Accreditation of Laboratory Animal Care. 8-week old male BALB/c (stock number: 001026) and C57BL/6J (stock number 000664) mice were purchased from Jackson Laboratory and respectively used in allergic airway inflammation (FIG. 5) and pain hypersensitivity model (FIGS. 2A-2D). 6-week old male Sprague-Dawley (stock number: 400) rats, 150±25 grams, were purchased from Charles River laboratory and used to assess pain hypersensitivity (FIG. 3). The compounds were injected in the plantar surface of each animal's right hind paw in 10 μl (mice) or 50 μl (rats) volume of 1:1 emulsion of Complete Freund's Adjuvant (CFA). […] On the 4th day, their thermal nociceptive threshold was evaluated. […] Impact of treatment was analyzed 1 h prior and 1, 3, 6 and 24 h post-treatment. […] With each reading the apparatus was set with a cut-off time of 32 s.

T1 sequence (Q15858 whole entry): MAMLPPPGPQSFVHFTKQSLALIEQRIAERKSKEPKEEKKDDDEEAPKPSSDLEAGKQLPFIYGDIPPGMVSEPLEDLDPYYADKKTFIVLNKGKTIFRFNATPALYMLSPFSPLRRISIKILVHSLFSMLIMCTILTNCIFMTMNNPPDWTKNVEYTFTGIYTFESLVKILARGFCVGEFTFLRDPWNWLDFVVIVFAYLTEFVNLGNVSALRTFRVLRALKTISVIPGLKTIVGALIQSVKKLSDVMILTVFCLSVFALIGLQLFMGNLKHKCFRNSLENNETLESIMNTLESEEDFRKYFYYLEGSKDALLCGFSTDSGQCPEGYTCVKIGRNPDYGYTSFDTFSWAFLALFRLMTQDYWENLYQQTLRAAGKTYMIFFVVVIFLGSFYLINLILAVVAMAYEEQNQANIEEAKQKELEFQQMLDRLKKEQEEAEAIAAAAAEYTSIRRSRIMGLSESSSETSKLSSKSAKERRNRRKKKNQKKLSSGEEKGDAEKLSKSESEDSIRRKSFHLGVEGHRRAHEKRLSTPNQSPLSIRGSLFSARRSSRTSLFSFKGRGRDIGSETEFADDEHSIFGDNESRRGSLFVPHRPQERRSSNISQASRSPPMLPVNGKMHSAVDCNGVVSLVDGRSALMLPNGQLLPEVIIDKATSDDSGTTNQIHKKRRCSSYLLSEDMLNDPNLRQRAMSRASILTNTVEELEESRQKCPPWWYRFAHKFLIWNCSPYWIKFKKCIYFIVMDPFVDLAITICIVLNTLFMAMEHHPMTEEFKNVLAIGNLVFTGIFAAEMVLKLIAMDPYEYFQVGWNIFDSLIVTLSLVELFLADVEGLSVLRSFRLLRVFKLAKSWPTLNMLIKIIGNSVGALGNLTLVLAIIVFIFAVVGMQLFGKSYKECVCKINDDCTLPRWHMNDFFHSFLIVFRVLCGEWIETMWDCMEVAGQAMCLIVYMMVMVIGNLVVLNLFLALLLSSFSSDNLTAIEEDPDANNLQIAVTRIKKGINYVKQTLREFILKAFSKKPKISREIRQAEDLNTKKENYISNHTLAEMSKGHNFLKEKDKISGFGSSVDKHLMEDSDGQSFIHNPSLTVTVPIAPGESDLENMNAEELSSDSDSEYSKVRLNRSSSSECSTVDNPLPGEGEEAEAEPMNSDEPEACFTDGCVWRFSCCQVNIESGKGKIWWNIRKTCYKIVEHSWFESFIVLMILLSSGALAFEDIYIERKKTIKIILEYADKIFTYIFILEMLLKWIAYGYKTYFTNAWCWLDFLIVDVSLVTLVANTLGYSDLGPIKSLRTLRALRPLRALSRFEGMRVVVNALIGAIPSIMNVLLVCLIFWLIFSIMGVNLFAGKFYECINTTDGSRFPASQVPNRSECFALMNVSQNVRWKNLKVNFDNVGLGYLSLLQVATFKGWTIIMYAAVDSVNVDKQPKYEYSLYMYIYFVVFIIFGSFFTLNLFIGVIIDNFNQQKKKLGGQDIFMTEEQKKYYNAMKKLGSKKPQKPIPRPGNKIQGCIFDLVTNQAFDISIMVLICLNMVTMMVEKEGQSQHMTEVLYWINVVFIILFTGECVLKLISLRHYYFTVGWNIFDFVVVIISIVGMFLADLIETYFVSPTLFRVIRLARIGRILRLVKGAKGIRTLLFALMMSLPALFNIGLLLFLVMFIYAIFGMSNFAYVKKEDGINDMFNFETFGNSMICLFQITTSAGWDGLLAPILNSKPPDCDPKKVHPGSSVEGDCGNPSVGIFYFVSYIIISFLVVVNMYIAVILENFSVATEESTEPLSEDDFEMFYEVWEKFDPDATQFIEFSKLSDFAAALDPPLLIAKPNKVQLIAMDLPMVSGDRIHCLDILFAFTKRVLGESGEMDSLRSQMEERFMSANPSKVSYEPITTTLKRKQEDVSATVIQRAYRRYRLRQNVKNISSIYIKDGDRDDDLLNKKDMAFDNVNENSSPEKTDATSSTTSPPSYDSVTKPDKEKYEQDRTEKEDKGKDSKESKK

CC[N+](CC)(CC)CCNC(=O)c1c(C)cccc1C [Compound 25]
inhibition at 100 µM [1]: 3%

CC[N+](CC)(CC)CCC(=O)Nc1c(C)cccc1C [Compound 24, 3-(2,6-dimethylphenylamino)-N,N,N-triethyl-3-oxopropan-1-aminium Chloride]
inhibition at 100 µM [1]: 15%

CCC(C(=O)Nc1c(C)cccc1C)[N+]1(CC)CCCC1 (stereo not shown) [Compound 3, 1-(1-(2,6-dimethylphenylamino)-1-oxobutan-2-yl)-1-ethylpyrrolidinium Chloride]
long lasting analgesia in naïve animals [2]: without long lasting analgesia
inhibition at 100 µM [1]: 78%
reversal of CFA-induced thermal hyperalgesia [3]: potent blockade

CCC(C(=O)Nc1c(C)cccc1C)[N+]1(CC)CCCCC1 (stereo not shown) [Compound 6, 1-(1-(2,6-dimethylphenylamino)-1-oxobutan-2-yl)-1-ethylpiperidinium]
inhibition at 100 µM [1]: 83%
use dependent accumulation of block ([1]; 100 micromolar inside cell, stimulation frequencies from 1 to 10 Hz): strong use dependent accumulation of block
effect on sodium current when applied externally versus inside the cell [1]: far more effective when applied inside the cell
effect on sodium current when applied externally versus inside the cell ([1]; listed as compound 6): very little effect

Cc1cccc(C)c1NC(=O)C(C)(C)[N+]1(C)CCCC1 [Compound 2, 1-(1-(2,6-dimethylphenylamino)-2-methyl-1-oxopropan-2-yl)-1-methylpyrrolidinium Chloride]
inhibition at 100 µM [1]: 42%

Cc1cccc(C)c1NC(=O)C(C)(C)[N+]1(C)CCCCC1 [Compound 5, 1-(1-(2,6-dimethylphenylamino)-2-methyl-1-oxopropan-2-yl)-1-methylpiperidinium Chloride]
inhibition at 100 µM [1]: 34%

CC[N+]1(CC)CCCC1C(=O)Nc1c(C)cccc1C (stereo not shown) [Compound 14, 2-(2,6-dimethylphenylcarbamoyl)-1,1-diethylpyrrolidinium Chloride]
inhibition at 100 µM [1]: 62%

CC[N+](CC)(CC)CC(=O)Nc1c(C)cc(N)cc1C [Compound 23, 2-(4-amino-2,6-dimethylphenylamino)-N, N, N-triethyl-2-oxoethanaminium Chloride]
inhibition at 100 µM [1]: 56%

CC[N+]1(CC)CCCCC1C(=O)Nc1c(C)cccc1C (stereo not shown) [Compound 15, 2-(2,6-dimethylphenylcarbamoyl)-1,1-diethylpiperidinium Chloride]
inhibition at 100 µM [1]: 40%

CC[N+](CC)(CC)CC(=O)Nc1ccc(N)cc1 [Compound 22, 2-(4-aminophenylamino)-N,N,N-triethyl-2-oxoethanaminium]
inhibition at 100 µM [1]: 0%

Cc1cccc(C)c1NC(=O)C1CCC[N+]1(C)C (stereo not shown) [Compound 13, 2-(2,6-dimethylphenylcarbamoyl)-1,1-dimethylpyrrolidinium Chloride]
inhibition at 100 µM [1]: 33%

Cc1cc(F)cc(C)c1NC(=O)C1CCCC[N+]1(C)C (stereo not shown) [Compound 16, 2-(4-fluoro-2,6-dimethylphenylcarbamoyl)-1,1-dimethylpiperidinium Chloride]
inhibition at 100 µM [1]: 70%

Cc1cccc(C)c1NC(=O)C(C)[N+]1(C)CCCCC1 (stereo not shown) [Compound 4, 1-(1-(2,6-dimethylphenylamino)-1-oxopropan-2-yl)-1-methylpiperidinium Chloride]
inhibition at 100 µM [1]: 43%

Cc1cccc(C)c1NC(=O)C(C)[N+]1(C)CCCC1 (stereo not shown) [Compound 1, 1-(1-(2,6-dimethylphenylamino)-1-oxopropan-2-yl)-1-methylpyrrolidinium Chloride]
inhibition at 100 µM [1]: 40%
